Reference: ChEMBL document CHEMBL1150581, “Batzelline D and isobatzelline E from the indopacific sponge Zyzzya fuliginosa” (J Nat Prod, 2002)
Active and inactive are the calls of the source. No cut-off for these calls is given here.

Experiments:
[1] = Inhibition of HIV1 env protein assessed as inhibition of env expressing african green monkey BSC1 cell fusion with mouse NIH3T3 cell expressing CXCR4 and Escherichia coli T7 after 2.5 hrs by beta galactosidase report gene assay; settings: Human immunodeficiency virus 1, NIH3T3, 2.5 h
NIH3T3 = test: Inhibition of HIV1 env protein assessed as inhibition of env expressing african green monkey BSC1 cell fusion with mouse NIH3T3 cell expressing CXCR4 and Escherichia coli T7 at 1 ug/ml after 2.5 hrs by beta galactosidase report gene assay; settings: Human immunodeficiency virus 1

SMILES: Cn1cc2c3c1C(=O)C(N)=C(Cl)C3=NCC2 [ISOBATZELLINE C]
- IC50 [1]: 0.2 µM
- Activity (NIH3T3): Active

SMILES: Cn1cc2c3c1C(=O)C(N)=CC3=[N+](C)CC2 [MAKALUVAMINE H]
- IC50 [1]: 5 µM
- Activity (NIH3T3): Active

SMILES: Cn1cc2c3c1C(=O)C(N)=CC3=NCC2 [MAKALUVAMINE A]
- IC50 [1]: 5 µM
- Activity (NIH3T3): Active
